Results: PubChem BioAssay AID248 (DTP/NCI, 2004)
“And” between values parts separate entries of the source, which are not always exact repeats. Equal values may be shown once. Inconclusive results and toxic doses are left out. Rule as the data show it: active = T/C of 150% or more; inactive = T/C below 125%.

Tested on: L1210 leukemia ip in BDF1 mice, survival T/C
Assay: NCI In Vivo Anticancer Drug Screen. Data for tumor model L1210 Leukemia (intraperitoneal) in B6D2F1 (BDF1) mice
Conditions: higher = longer survival
Method in brief: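 Transplanted-tumor mice were given test agent; controls received vehicle only. Survival readings from the two groups were divided (treated over control).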

[1] = endpoint: mean survival time, dose: 100.0 mg/kg/injection, schedule: Q04DX003 (ip), vehicle: Klucel (hydroxypropylcellulose) (HPC)
[2] = endpoint: mean survival time, dose: 200.0 mg/kg/injection, schedule: Q04DX003 (ip), vehicle: Klucel (hydroxypropylcellulose) (HPC)
[3] = endpoint: mean survival time, dose: 100.0 mg/kg/injection, schedule: Q04DX002 (ip), vehicle: Klucel (hydroxypropylcellulose) (HPC)
[4] = endpoint: mean survival time, dose: 200.0 mg/kg/injection, schedule: Q04DX002 (ip), vehicle: Klucel (hydroxypropylcellulose) (HPC)
[5] = endpoint: mean survival time, dose: 400.0 mg/kg/injection, schedule: Q04DX002 (ip), vehicle: Klucel (hydroxypropylcellulose) (HPC)
[6] = endpoint: mean survival time, dose: 25.0 mg/kg/injection, schedule: Q04DX002 (ip), vehicle: saline
[7] = endpoint: mean survival time, dose: 100.0 mg/kg/injection, schedule: Q04DX003 (ip), vehicle: saline with Tween-80
[8] = endpoint: mean survival time, dose: 200.0 mg/kg/injection, schedule: Q04DX003 (ip), vehicle: saline with Tween-80
[9] = endpoint: mean survival time, dose: 400.0 mg/kg/injection, schedule: Q04DX003 (ip), vehicle: saline with Tween-80
[10] = endpoint: mean survival time, dose: 100.0 mg/kg/injection, schedule: Q01DX001 (ip), vehicle: carboxymethylcellulose (CMC)
[11] = endpoint: mean survival time, dose: 200.0 mg/kg/injection, schedule: Q01DX001 (ip), vehicle: carboxymethylcellulose (CMC)
[12] = endpoint: mean survival time, dose: 400.0 mg/kg/injection, schedule: Q01DX001 (ip), vehicle: carboxymethylcellulose (CMC)
[13] = endpoint: mean survival time, dose: 100.0 mg/kg/injection, schedule: Q01DX001 (ip), vehicle: Klucel (hydroxypropylcellulose) (HPC)
[14] = endpoint: mean survival time, dose: 200.0 mg/kg/injection, schedule: Q01DX001 (ip), vehicle: Klucel (hydroxypropylcellulose) (HPC)
[15] = endpoint: mean survival time, dose: 400.0 mg/kg/injection, schedule: Q01DX001 (ip), vehicle: Klucel (hydroxypropylcellulose) (HPC)

Measured: T/C

NNC(=O)Cc1csc2ccccc12
inactive: endpoint: mean survival time, dose: 55.5 mg/kg/injection, schedule: Q01DX Z (ip), vehicle: carboxymethylcellulose (CMC) 102 % of control | endpoint: mean survival time, dose: 83.3 mg/kg/injection, schedule: Q01DX Z (ip), vehicle: carboxymethylcellulose (CMC) 114 % of control | endpoint: mean survival time, dose: 125.0 mg/kg/injection, schedule: Q01DX Z (ip), vehicle: carboxymethylcellulose (CMC) 119 % of control

COc1ccc(N2C(=O)CC(Sc3ccccc3N)C2=O)cc1 (stereo unspecified)
inactive: endpoint: mean survival time, dose: 100.0 mg/kg/injection, schedule: Q01DX009 (ip), vehicle: other 102 % of control | endpoint: mean survival time, dose: 100.0 mg/kg/injection, schedule: Q04DX003 (ip), vehicle: saline 94 % of control | endpoint: mean survival time, dose: 200.0 mg/kg/injection, schedule: Q01DX009 (ip), vehicle: other 91 % of control | endpoint: mean survival time, dose: 200.0 mg/kg/injection, schedule: Q04DX003 (ip), vehicle: saline 90 % of control | endpoint: mean survival time, dose: 400.0 mg/kg/injection, schedule: Q01DX009 (ip), vehicle: other 91 % of control | endpoint: mean survival time, dose: 400.0 mg/kg/injection, schedule: Q04DX003 (ip), vehicle: saline 90 % of control

CCOC(=O)N1c2ccc(Cl)cc2C=CC1C#N (stereo unspecified)
inactive: endpoint: mean survival time, dose: 100.0 mg/kg/injection, schedule: Q01DX009 (ip), vehicle: gum acacia 91 % of control | endpoint: mean survival time, dose: 100.0 mg/kg/injection, schedule: Q04DX003 (ip), vehicle: gum acacia 103 % of control | endpoint: mean survival time, dose: 200.0 mg/kg/injection, schedule: Q01DX009 (ip), vehicle: gum acacia 91 % of control | endpoint: mean survival time, dose: 200.0 mg/kg/injection, schedule: Q04DX003 (ip), vehicle: gum acacia 97 % of control | endpoint: mean survival time, dose: 400.0 mg/kg/injection, schedule: Q04DX003 (ip), vehicle: gum acacia 92 % of control

CCOC(=O)C(C(=O)c1ccccc1)=P(c1ccccc1)(c1ccccc1)c1ccccc1
inactive: [1] 100 % of control | [2] 100 % of control | endpoint: mean survival time, dose: 400.0 mg/kg/injection, schedule: Q04DX003 (ip), vehicle: Klucel (hydroxypropylcellulose) (HPC) 102 % of control

COC(=O)C(c1ccccc1)C(O)c1ccccc1 (stereo unspecified)
inactive: endpoint: mean survival time, dose: 55.0 mg/kg/injection, schedule: Q01DX Z (ip), vehicle: methylcellulose (MC) 113 % of control | endpoint: mean survival time, dose: 83.0 mg/kg/injection, schedule: Q01DX Z (ip), vehicle: methylcellulose (MC) 94 % of control | endpoint: mean survival time, dose: 125.0 mg/kg/injection, schedule: Q01DX Z (ip), vehicle: methylcellulose (MC) 93 % of control

O=C(Nc1ccc(F)cc1)Nc1cc(C(F)(F)F)ccc1Cl
inactive: endpoint: mean survival time, dose: 50.0 mg/kg/injection, schedule: Q01DX009 (ip), vehicle: Klucel (hydroxypropylcellulose) (HPC) 107 % of control | endpoint: mean survival time, dose: 100.0 mg/kg/injection, schedule: Q01DX009 (ip), vehicle: Klucel (hydroxypropylcellulose) (HPC) 92 % of control | endpoint: mean survival time, dose: 200.0 mg/kg/injection, schedule: Q01DX009 (ip), vehicle: Klucel (hydroxypropylcellulose) (HPC) 92 % of control

C/C=C\C=C\C(=O)O
inactive: [3] 97 % of control | [4] 94 % of control | [5] 103 % of control

Nc1ncnc(N)c1N=O
inactive: endpoint: mean survival time, dose: 50.0 mg/kg/injection, schedule: Q01DX009 (ip), vehicle: saline 107 % of control | endpoint: mean survival time, dose: 100.0 mg/kg/injection, schedule: Q01DX009 (ip), vehicle: saline 91 % of control | endpoint: mean survival time, dose: 200.0 mg/kg/injection, schedule: Q01DX009 (ip), vehicle: saline 101 % of control

O=C(O)C(F)(F)F.[Cu+2]
inactive: endpoint: mean survival time, dose: 12.5 mg/kg/injection, schedule: Q04DX002 (ip), vehicle: saline 98 % of control | [6] 95 % of control

O=C(NCCl)Nc1ccccc1
inactive: [6] 106 % of control | endpoint: mean survival time, dose: 50.0 mg/kg/injection, schedule: Q04DX002 (ip), vehicle: saline 106 % of control | endpoint: mean survival time, dose: 100.0 mg/kg/injection, schedule: Q04DX002 (ip), vehicle: saline + alcohol 100 % of control | endpoint: mean survival time, dose: 100.0 mg/kg/injection, schedule: Q04DX002 (ip), vehicle: saline 100 % of control

CC(=O)OCC(=O)[C@@]1(O)CC[C@H]2[C@@H]3C[C@H](C)C4=CC(=O)C=C[C@]4(C)[C@@]3(Br)[C@@H](O)C[C@@]21C
inactive: endpoint: mean survival time, dose: 50.0 mg/kg/injection, schedule: Q01DX001 (sc), vehicle: steriod suspending solution 101 % of control | endpoint: mean survival time, dose: 100.0 mg/kg/injection, schedule: Q01DX001 (sc), vehicle: steriod suspending solution 109 % of control | endpoint: mean survival time, dose: 200.0 mg/kg/injection, schedule: Q01DX001 (sc), vehicle: steriod suspending solution 106 % of control | endpoint: mean survival time, dose: 400.0 mg/kg/injection, schedule: Q01DX001 (sc), vehicle: steriod suspending solution 104 % of control

CC(Oc1ccccc1)C(=O)NC(=S)Nc1cccc2ccccc12 (stereo unspecified)
inactive: endpoint: mean survival time, dose: 50.0 mg/kg/injection, schedule: Q01DX009 (ip), vehicle: saline with Tween-80 90 % of control and 91 % of control | endpoint: mean survival time, dose: 100.0 mg/kg/injection, schedule: Q01DX001 (ip), vehicle: saline with Tween-80 108 % of control | endpoint: mean survival time, dose: 100.0 mg/kg/injection, schedule: Q01DX009 (ip), vehicle: saline with Tween-80 100 % of control and 86 % of control | endpoint: mean survival time, dose: 100.0 mg/kg/injection, schedule: Q04DX002 (ip), vehicle: saline with Tween-80 108 % of control and 114 % of control | [7] 108 % of control | endpoint: mean survival time, dose: 200.0 mg/kg/injection, schedule: Q01DX001 (ip), vehicle: saline with Tween-80 95 % of control | endpoint: mean survival time, dose: 200.0 mg/kg/injection, schedule: Q04DX002 (ip), vehicle: saline with Tween-80 93 % of control and 105 % of control | [8] 92 % of control | endpoint: mean survival time, dose: 400.0 mg/kg/injection, schedule: Q01DX001 (ip), vehicle: saline with Tween-80 93 % of control | endpoint: mean survival time, dose: 400.0 mg/kg/injection, schedule: Q04DX002 (ip), vehicle: saline with Tween-80 93 % of control and 88 % of control | [9] 92 % of control

CC1CCc2c(O)ccc(O)c21 (stereo unspecified)
inactive: [10] 102 % of control | [11] 96 % of control | [12] 94 % of control

CC(=O)Oc1ccccc1C1SCSCS1
inactive: [13] 100 % of control | [14] 100 % of control | [15] 94 % of control

CCOC(=O)CCC1(C(=O)OC)C(=O)CCCCC/C=C/1C(=O)OC (stereo unspecified)
inactive: [7] 99 % of control | [8] 101 % of control | [9] 106 % of control

Cc1ccc(C)c2c1[nH]c1c(C)c3ccncc3c(C)c12
inactive: endpoint: mean survival time, dose: 25.0 mg/kg/injection, schedule: Q01DX Z (ip), vehicle: saline 103 % of control | endpoint: mean survival time, dose: 50.0 mg/kg/injection, schedule: Q01DX Z (ip), vehicle: saline 103 % of control | endpoint: mean survival time, dose: 100.0 mg/kg/injection, schedule: Q01DX001 (ip), vehicle: saline 100 % of control | endpoint: mean survival time, dose: 100.0 mg/kg/injection, schedule: Q01DX Z (ip), vehicle: saline 112 % of control | endpoint: mean survival time, dose: 200.0 mg/kg/injection, schedule: Q01DX001 (ip), vehicle: saline 96 % of control | endpoint: mean survival time, dose: 400.0 mg/kg/injection, schedule: Q01DX001 (ip), vehicle: saline 103 % of control

Cc1nc(N)[nH]c(=O)c1CCCC#N
inactive: [13] 104 % of control | [3] 97 % of control and 109 % of control | [1] 101 % of control | [14] 98 % of control | [4] 93 % of control and 103 % of control | [2] 112 % of control | [15] 100 % of control | [5] 104 % of control and 90 % of control

COc1ccc(-c2ccc([N+](=O)[O-])cc2[N+](=O)[O-])cc1
inactive: [10] 105 % of control | [11] 110 % of control | [12] 105 % of control

CC(=O)S[C@@H]1CC2=CC(=O)CC[C@]2(C)[C@H]2CC[C@@]3(C)[C@@H](CC[C@@]34CCC(=O)O4)[C@H]12
inactive: endpoint: mean survival time, dose: 45.0 mg/kg/injection, schedule: Q01DX009 (sc), vehicle: steriod suspending solution 107 % of control | endpoint: mean survival time, dose: 90.0 mg/kg/injection, schedule: Q01DX009 (sc), vehicle: steriod suspending solution 102 % of control | [1] 90 % of control | endpoint: mean survival time, dose: 180.0 mg/kg/injection, schedule: Q01DX009 (sc), vehicle: steriod suspending solution 100 % of control | endpoint: median survival time, dose: 100.0 mg/kg/injection, schedule: Q01DX001 (ip), vehicle: water 97 % of control | endpoint: median survival time, dose: 100.0 mg/kg/injection, schedule: Q01DX009 (sc), vehicle: steriod suspending solution 101 % of control | endpoint: median survival time, dose: 200.0 mg/kg/injection, schedule: Q01DX001 (ip), vehicle: water 91 % of control | endpoint: median survival time, dose: 200.0 mg/kg/injection, schedule: Q01DX009 (sc), vehicle: steriod suspending solution 95 % of control | endpoint: median survival time, dose: 400.0 mg/kg/injection, schedule: Q01DX001 (ip), vehicle: water 97 % of control | endpoint: median survival time, dose: 400.0 mg/kg/injection, schedule: Q01DX009 (sc), vehicle: steriod suspending solution 96 % of control
